Experimental data: ChEMBL document CHEMBL1130772, “New nonsteroidal androgen receptor modulators based on 4-(trifluoromethyl)-2(1H)-pyrrolidino[3,2-g] quinolinone” (Bioorg Med Chem Lett, 1998); call rule not given here

Legend:
Androgen receptor [1] = molecular target: T1, Androgen receptor (Homo sapiens, UniProt P10275); settings: cv-1
T1 sequence (P10275 whole entry): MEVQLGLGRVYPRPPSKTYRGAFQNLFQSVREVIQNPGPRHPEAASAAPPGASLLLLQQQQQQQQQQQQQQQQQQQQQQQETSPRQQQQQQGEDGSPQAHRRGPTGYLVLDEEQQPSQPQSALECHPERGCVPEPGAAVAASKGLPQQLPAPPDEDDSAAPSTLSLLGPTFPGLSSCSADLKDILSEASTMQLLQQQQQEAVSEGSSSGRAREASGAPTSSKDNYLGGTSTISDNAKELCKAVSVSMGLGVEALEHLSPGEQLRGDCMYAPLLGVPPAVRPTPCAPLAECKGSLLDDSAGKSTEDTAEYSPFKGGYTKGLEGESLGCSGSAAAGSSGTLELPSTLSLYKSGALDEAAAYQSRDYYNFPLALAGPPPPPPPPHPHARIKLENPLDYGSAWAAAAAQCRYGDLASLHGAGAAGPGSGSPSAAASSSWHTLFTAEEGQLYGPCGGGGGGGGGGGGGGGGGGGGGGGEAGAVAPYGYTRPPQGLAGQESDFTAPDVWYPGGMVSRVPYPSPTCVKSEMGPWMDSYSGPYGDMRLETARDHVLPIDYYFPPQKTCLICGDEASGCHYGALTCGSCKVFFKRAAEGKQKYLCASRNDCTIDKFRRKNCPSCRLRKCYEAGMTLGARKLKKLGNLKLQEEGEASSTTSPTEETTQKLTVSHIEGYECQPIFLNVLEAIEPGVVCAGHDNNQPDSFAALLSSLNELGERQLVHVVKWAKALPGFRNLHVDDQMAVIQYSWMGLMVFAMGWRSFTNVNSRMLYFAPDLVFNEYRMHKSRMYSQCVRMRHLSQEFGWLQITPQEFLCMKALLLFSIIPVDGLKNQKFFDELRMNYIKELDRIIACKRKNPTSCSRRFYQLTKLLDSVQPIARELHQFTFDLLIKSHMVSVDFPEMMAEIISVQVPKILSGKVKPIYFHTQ
Description: Agonistic activity against human androgen receptor (hAR) in co-transfected CV-1 cell

Androgen receptor [2] = molecular target: T1, Androgen receptor
Description: Antagonistic activity (IC50) against human androgen receptor (hAR) in co-transfected CV-1 cell

Androgen receptor [3] = molecular target: T1, Androgen receptor; assay: Binding affinity against hAR androgen receptor expressed in COS cells; type: cell-based

Question: Which results are given for CC1(C)CCC[C@@H]2c3cc4c(C(F)(F)F)cc(O)nc4cc3N[C@@H]21?
Answer: EC50 (Androgen receptor [1]): Not Active; IC50 (Androgen receptor [2]): 26 nM; Ki (Androgen receptor [3]): 79 nM

Question: What does the source list for Cn1c(=O)cc(C(F)(F)F)c2cc3c(cc21)NCC3?
Answer: EC50 (Androgen receptor [1]): Not Active; IC50 (Androgen receptor [2]): 56 nM; Ki (Androgen receptor [3]): 61 nM

Question: With CN1c2cc3c(cc2[C@H]2CCCC(C)(C)[C@H]21)c(C(F)(F)F)cc(=O)n3C as the compound, how does the EC50 (Androgen receptor [1]) read?
Answer: Not Active

Question: And the IC50 (Androgen receptor [2])?
Answer: 27 nM

Question: What about the Ki (Androgen receptor [3]) of the same compound?
Answer: 59 nM
